Measurements reported in BindingDB's records for doi:10.1021/jm00076a030 (Eli Lilly, 1994).
pKi: −log10 of the molar value.

Molecular target: Leukotriene B4 receptor (Cavia porcellus)
Experiment: Tested for inhibition of specific binding of [3H]LTB4 to guinea pig lung membranes expressing LTB4 receptor

SMILES: CCc1cc(-c2ccccc2)c(O)cc1OCCCOc1ccc2c(=O)c3ccccc3oc2c1CCC(=O)O [3-{3-[3-(5-Ethyl-2-hydroxy-biphenyl-4-yloxy)-propoxy]-9-oxo-9H-xanthen-4-yl}-propionic acid]
- pKi: 7.92

SMILES: CCc1cc(-c2ccccc2)c(O)cc1OCCCOc1ccc2c(=O)c3cc(C(=O)O)ccc3oc2c1CCC(=O)O [5-(2-Carboxy-ethyl)-6-[3-(5-ethyl-2-hydroxy-biphenyl-4-yloxy)-propoxy]-9-oxo-9H-xanthene-2-carboxylic acid]
- pKi: 9.96
